Experimental findings from ChEMBL document CHEMBL5649166, “RIP3 induces apoptosis independent of pronecrotic kinase activity” (Mol Cell, 2014) are described below.

Data set [1] has as its system L929. Description: Inhibition of TLR-3 induced necroptosis in mouse L929 cells assessed as increase in cell viability upto 10 uM incubated for 18 hrs in presence of poly(I:C) and zVAD by Cell Titer-Glo luminescent cell viability assay. In kind it is functional, cell-based. Background: Cellular ATP, detected with luciferase, serves as a proxy for viable cell number.

In data set [2] the test system is SVEC4-10. Nature of the data set: Inhibition of DAI-induced necroptosis in wildtype MCMV infected mouse SVEC4-10 cells assessed as increase in cell viability at 10 uM incubated for 18 hrs by Cell Titer-Glo luminescent cell viability assay. In kind it is functional, cell-based.
The subject of data set [3] is 3T3SA. Description: Induction of apoptosis in mouse 3T3SA cells transfected with RIP3 shRNA assessed as accumulation of cleaved caspase-3 by measuring percentage of cleaved caspase-3 positive cells measured after 8 hrs by immunoblot analysis (reference value: 11%). Type of data set: toxicity, cell-based. (In western blotting, separated proteins are transferred to a membrane and probed.)

The test system of data set [4] is 3T3SA. Nature of the data set: Induction of apoptosis in mouse 3T3SA cells incubated for 18 hrs in presence of zLEHD by Cell Titer-Glo luminescent cell viability assay. Type of data set: toxicity, cell-based.
Data set [5] has as its system 3T3SA. Nature of the data set: Induction of apoptosis in mouse 3T3SA cells incubated for 18 hrs in presence of 3-MA by Cell Titer-Glo luminescent cell viability assay. In kind it is toxicity, cell-based.
Data set [6] deals with MEF. Nature of the data set: Induction of apoptosis in MEF cells expressing RIP1 K45A/K45A mutant incubated for 18 hrs by Cell Titer-Glo luminescent cell viability assay. In kind it is toxicity, cell-based. The conditions noted are these: mouse.
Data set [7] has as its system MEF. Description: Induction of apoptosis in Casp8-/- MEF cells incubated for 18 hrs by Cell Titer-Glo luminescent cell viability assay. Type of data set: toxicity, cell-based. The conditions noted are these: mouse.
In data set [8] the test system is MEF. Nature of the data set: Induction of apoptosis in RIP3-/- MEF cells transfected with RIP3 K51A mutant incubated for 18 hrs by Cell Titer-Glo luminescent cell viability assay. Type of data set: toxicity, cell-based. Conditions: mouse.
In data set [9] the test system is 3T3SA. Description: Induction of apoptosis in vICA expression plasmid transfected mouse 3T3SA cells co-transfected with shRNA-resistant RIP3 K51A mutant incubated for 12 hrs by Cell Titer-Glo luminescent cell viability assay. In kind it is toxicity, cell-based.
The subject of data set [10] is 3T3SA. Description: Induction of apoptosis in vICA expression plasmid transfected mouse 3T3SA cells co-transfected with shRNA-resistant RIP3 D143N mutant incubated for 12 hrs by Cell Titer-Glo luminescent cell viability assay. In kind it is toxicity, cell-based.
For data set [11], the system named is MEF. Nature of the data set: Induction of apoptosis in MEF cells expressing wildtype RIP3 incubated for 18 hrs by Cell Titer-Glo luminescent cell viability assay. The conditions noted are these: mouse. In kind it is toxicity, cell-based.

Calls of active or inactive are those of the source. The rule behind the calls is not given here.

Regarding `CC(C)S(=O)(=O)c1ccc2nccc(Nc3ccc4scnc4c3)c2c1`, in data set [1], the inhibition result is “Active”. Besides, the inhibition result in data set [2] was “inactive”. In addition, the Activity in [3] is reported as 12.1%; in data set [4], “Toxic”; in data set [5], “Toxic”; in data set [6], “Non-Toxic”; in [7] it was “Non-Toxic”; in data set [8] it was “Toxic”. The results for the Activity result in data set [9], in data set [10] and in data set [11] were “Non-Toxic”, “Non-Toxic” and “Toxic”, respectively.
